Source: ChEMBL document CHEMBL6103575, “Design, synthesis and evaluation of (E)-1-(4-(2-(1H-pyrazol-5-yl)vinyl)phenyl) derivatives as next generation selective RET inhibitors overcoming RET solvent front mutations (G810C/R)” (Eur J Med Chem, 2025)

Assays:
BaF3 [1] = assay: Antiproliferative activity against mouse BaF3 cells harbouring CCDC6-RET V804M mutant assessed as inhibition of cell proliferation incubated for 72 hrs by CCK-8 assay; type: functional, cell-based; conditions: BaF3, 72 h
BaF3 [2] = assay: Antiproliferative activity against mouse BaF3 cells harbouring CCDC6-RET G810R mutant assessed as inhibition of cell proliferation incubated for 72 hrs by CCK-8 assay; type: functional, cell-based; conditions: BaF3, 72 h
BaF3 [3] = assay: Antiproliferative activity against mouse BaF3 cells harbouring CCDC6-RET assessed as inhibition of cell proliferation incubated for 72 hrs by CCK-8 assay; type: functional, cell-based; conditions: BaF3, 72 h
BaF3 [4] = assay: Antiproliferative activity against mouse BaF3 cells harbouring CCDC6-RET G810C mutant assessed as inhibition of cell proliferation incubated for 72 hrs by CCK-8 assay; type: functional, cell-based; conditions: BaF3, 72 h
BaF3 [5] = assay: Antiproliferative activity against mouse BaF3 cells harbouring CCDC6-RET
BaF3 [6] = assay: Antiproliferative activity against mouse BaF3 cells harbouring CCDC6-RET G810R mutant; type: functional, cell-based
BaF3 [7] = assay: Antiproliferative activity against mouse BaF3 cells harbouring CCDC6-RET V804M mutant; type: functional, cell-based
BaF3 [8] = assay: Antiproliferative activity against mouse BaF3 cells harbouring CCDC6-RET G810C mutant; type: functional, cell-based
BaF3 [9] = assay: Antiproliferative activity against mouse BaF3 cells harbouring CCDC6-RET V804M mutant assessed as inhibition of cell proliferation; type: functional, cell-based
[10] = target: Proto-oncogene tyrosine-protein kinase receptor Ret (Homo sapiens, UniProt P07949, V804M); assay: Inhibition of RET V804M mutant (unknown origin)
Chain of Proto-oncogene tyrosine-protein kinase receptor Ret (Homo sapiens, UniProt P07949, V804M) (P07949 29-1114 V804M limits assumed): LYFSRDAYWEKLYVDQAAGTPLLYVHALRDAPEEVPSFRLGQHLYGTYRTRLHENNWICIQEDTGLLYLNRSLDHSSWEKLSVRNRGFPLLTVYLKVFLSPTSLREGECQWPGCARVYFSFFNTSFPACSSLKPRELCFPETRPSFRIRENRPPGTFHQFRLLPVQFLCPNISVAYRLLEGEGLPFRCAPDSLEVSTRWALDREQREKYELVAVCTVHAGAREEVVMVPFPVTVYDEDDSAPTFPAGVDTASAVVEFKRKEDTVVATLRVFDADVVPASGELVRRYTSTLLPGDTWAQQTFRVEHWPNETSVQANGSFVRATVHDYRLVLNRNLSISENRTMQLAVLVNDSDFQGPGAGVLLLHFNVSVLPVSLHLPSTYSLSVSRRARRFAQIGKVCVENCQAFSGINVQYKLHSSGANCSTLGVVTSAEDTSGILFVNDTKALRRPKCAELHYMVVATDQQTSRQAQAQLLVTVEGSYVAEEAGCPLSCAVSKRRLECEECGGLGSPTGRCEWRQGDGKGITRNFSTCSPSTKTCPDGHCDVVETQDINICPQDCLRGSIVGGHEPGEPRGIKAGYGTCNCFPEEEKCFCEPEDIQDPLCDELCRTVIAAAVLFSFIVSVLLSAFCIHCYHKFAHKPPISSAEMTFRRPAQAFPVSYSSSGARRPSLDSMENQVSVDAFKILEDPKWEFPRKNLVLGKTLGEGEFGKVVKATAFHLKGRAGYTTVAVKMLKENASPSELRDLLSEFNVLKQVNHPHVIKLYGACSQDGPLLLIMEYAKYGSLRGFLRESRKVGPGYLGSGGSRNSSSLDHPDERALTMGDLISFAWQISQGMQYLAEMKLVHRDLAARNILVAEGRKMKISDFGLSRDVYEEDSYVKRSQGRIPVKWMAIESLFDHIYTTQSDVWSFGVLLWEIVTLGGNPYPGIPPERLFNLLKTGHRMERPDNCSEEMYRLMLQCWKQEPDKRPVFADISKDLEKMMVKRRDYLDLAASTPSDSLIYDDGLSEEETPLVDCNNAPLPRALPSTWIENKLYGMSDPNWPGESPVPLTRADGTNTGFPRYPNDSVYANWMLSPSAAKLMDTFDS

[11] = target: Proto-oncogene tyrosine-protein kinase receptor Ret (Homo sapiens, UniProt P07949, G810R); assay: Inhibition of RET G810R mutant (unknown origin)
Chain of Proto-oncogene tyrosine-protein kinase receptor Ret (Homo sapiens, UniProt P07949, G810R) (P07949 29-1114 G810R limits assumed): as the sequence (P07949 29-1114 V804M limits assumed) above, with M776V, G782R counted along it

[12] = target: Kinesin-1 heavy chain/ Tyrosine-protein kinase receptor RET (Homo sapiens, UniProt P07949); assay: Inhibition of wild type KIF5B-RET (unknown origin); type: protein assay
Chain of Kinesin-1 heavy chain/ Tyrosine-protein kinase receptor RET (P07949 whole entry): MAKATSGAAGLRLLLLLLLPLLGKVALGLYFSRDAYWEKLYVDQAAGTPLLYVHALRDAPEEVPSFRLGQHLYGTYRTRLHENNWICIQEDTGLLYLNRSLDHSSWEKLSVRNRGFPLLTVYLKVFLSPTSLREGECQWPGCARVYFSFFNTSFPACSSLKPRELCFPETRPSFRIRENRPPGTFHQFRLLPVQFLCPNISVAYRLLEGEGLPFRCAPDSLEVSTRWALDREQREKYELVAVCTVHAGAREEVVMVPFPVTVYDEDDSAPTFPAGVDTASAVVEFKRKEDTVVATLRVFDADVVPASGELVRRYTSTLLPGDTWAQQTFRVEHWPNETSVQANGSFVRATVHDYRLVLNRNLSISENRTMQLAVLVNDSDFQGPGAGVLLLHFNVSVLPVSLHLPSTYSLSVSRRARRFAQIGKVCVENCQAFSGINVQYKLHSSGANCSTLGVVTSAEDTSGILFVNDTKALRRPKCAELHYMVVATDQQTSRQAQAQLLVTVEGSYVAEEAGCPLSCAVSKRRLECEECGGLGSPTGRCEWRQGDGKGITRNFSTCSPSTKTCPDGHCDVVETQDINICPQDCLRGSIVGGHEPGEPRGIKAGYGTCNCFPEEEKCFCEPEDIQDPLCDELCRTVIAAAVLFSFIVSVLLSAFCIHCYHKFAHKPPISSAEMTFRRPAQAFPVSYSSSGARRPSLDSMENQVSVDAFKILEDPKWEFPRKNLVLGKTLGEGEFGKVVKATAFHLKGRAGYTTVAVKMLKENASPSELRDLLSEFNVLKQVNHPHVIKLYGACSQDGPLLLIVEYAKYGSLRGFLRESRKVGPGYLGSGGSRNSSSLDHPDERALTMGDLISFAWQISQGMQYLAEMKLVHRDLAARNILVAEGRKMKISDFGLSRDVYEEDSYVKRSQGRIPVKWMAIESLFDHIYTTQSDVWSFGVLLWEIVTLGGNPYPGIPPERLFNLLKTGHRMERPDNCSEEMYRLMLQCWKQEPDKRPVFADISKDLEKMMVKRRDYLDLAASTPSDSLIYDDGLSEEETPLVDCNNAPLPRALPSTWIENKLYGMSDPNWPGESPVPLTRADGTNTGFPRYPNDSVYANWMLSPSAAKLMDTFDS
Chain of Kinesin-1 heavy chain/ Tyrosine-protein kinase receptor RET (P33176 whole entry, further chain): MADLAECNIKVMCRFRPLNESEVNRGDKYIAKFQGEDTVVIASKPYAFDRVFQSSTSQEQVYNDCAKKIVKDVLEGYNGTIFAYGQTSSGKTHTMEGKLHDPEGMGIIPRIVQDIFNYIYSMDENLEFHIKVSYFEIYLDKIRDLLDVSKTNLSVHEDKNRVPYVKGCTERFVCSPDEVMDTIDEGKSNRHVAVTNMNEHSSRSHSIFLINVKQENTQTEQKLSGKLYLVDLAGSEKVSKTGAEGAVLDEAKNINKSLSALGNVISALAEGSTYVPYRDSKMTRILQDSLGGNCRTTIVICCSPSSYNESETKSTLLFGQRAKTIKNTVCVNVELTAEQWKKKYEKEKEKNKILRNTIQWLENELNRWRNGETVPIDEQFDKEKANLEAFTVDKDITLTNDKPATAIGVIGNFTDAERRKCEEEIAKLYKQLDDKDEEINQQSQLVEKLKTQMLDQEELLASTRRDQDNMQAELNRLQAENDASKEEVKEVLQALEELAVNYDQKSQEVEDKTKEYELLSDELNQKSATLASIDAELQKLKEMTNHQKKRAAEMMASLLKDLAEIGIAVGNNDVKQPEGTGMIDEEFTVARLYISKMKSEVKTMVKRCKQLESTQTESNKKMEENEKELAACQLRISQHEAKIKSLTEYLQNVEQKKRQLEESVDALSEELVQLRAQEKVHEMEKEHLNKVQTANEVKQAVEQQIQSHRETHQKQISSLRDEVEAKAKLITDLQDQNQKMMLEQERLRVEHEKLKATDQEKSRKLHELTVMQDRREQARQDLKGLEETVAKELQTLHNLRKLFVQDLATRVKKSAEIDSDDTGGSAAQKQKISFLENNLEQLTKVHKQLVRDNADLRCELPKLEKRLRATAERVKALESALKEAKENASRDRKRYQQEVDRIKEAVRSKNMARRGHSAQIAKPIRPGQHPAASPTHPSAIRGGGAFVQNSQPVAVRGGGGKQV

BaF3 [13] = assay: Antiproliferative activity against mouse BaF3 cells harbouring KIF5B-RET G810C mutant assessed as inhibition of cell proliferation; type: functional, cell-based
BaF3 [14] = assay: Antiproliferative activity against mouse BaF3 cells harbouring KIF5B-RET assessed as inhibition of cell proliferation; type: functional, cell-based
BaF3 [15] = assay: Antiproliferative activity against mouse BaF3 cells harbouring KIF5B-RET G810R mutant assessed as inhibition of cell proliferation; type: functional, cell-based

IC50 (BaF3 [1]) [µM]	IC50 (BaF3 [2]) [µM]	IC50 (BaF3 [3]) [µM]	IC50 (BaF3 [4]) [µM]	SMILES	further results
0.844	0.278	0.175	0.205	CC(C)(c1cc(NC(=O)Nc2ccc(/C=C/c3[nH]ncc3-c3cncc(C#N)c3)cc2)no1)C(F)(F)F	–
0.632	0.471	0.271	0.499	COc1cncc(-c2cn[nH]c2/C=C/c2ccc(NC(=O)Nc3cc(C(C)(C)C(F)(F)F)on3)cc2C)c1	–
0.421	0.246	0.108	0.309	COc1cncc(-c2cn[nH]c2/C=C/c2ccc(NC(=O)Nc3cc(C(C)(C)C(F)(F)F)on3)cc2Cl)c1	–
3.07	1.21	0.222	0.737	CNC(=O)c1cncc(-c2cn[nH]c2/C=C/c2ccc(NC(=O)Nc3cc(C(C)(C)C(F)(F)F)on3)cc2)c1	–
1.02	0.428	0.0894	0.377	COC(=O)c1cncc(-c2cn[nH]c2/C=C/c2ccc(NC(=O)Nc3cc(C(C)(C)C(F)(F)F)on3)cc2)c1	–
1.81	2.2	1.06	0.777	COc1cncc(-c2cn[nH]c2/C=C/c2cccc(NC(=O)Nc3cc(C(C)(C)C(F)(F)F)on3)c2)c1	–
1.52	0.836	0.223	0.641	COc1cncc(-c2cnn(C)c2/C=C/c2ccc(NC(=O)Nc3cc(C(C)(C)C(F)(F)F)on3)cc2)c1	–
0.594	0.143	0.147	0.042	CC(C)(c1cc(NC(=O)Nc2ccc(/C=C/c3[nH]ncc3-c3cncc(F)c3)cc2)no1)C(F)(F)F	–
0.536	0.179	0.127	0.173	COc1cncc(-c2cn[nH]c2/C=C/c2ccc(NC(=O)Nc3cc(C(C)(C)C(F)(F)F)on3)cc2F)c1	–
0.554	0.133	0.046	0.046	COc1cncc(-c2cn[nH]c2/C=C/c2ccc(NC(=O)Nc3cc(C(C)(C)C(F)(F)F)on3)cc2)c1	–

Second part, the compound before the results:

SMILES	IC50 (BaF3 [1]) [µM]	IC50 (BaF3 [2]) [µM]	IC50 (BaF3 [3]) [µM]	IC50 (BaF3 [4]) [µM]	further results
COc1cncc(-c2cn(C)nc2/C=C/c2ccc(NC(=O)Nc3cc(C(C)(C)C(F)(F)F)on3)cc2)c1	0.719	1.13	0.126	0.421	–
CO[C@]1(C(=O)N[C@@H](C)c2ccc(-n3cc(F)cn3)nc2)CC[C@H](c2nc(C)cc(Nc3cc(C)[nH]n3)n2)CC1 [PRALSETINIB]	0.0049	0.32	0.0039	0.104	IC50 (BaF3 [5]): 0.005 µM; IC50 (BaF3 [6]): 0.358 µM; IC50 (BaF3 [7]): 0.0041 µM; IC50 (BaF3 [8]): 0.114 µM
COc1ccc(CN2[C@@H]3C[C@H]2CN(c2ccc(-c4cc(OCC(C)(C)O)cn5ncc(C#N)c45)cn2)C3)cn1	–	–	–	–	IC50 (BaF3 [9]): 0.026 µM
COc1ccc(-c2c[nH]nc2-c2ccc(NC(=O)Nc3cc(C(C)(C)C(F)(F)F)on3)cc2)cn1	0.231	0.658	0.435	0.363	–
COc1ccc(-c2cn[nH]c2CCc2ccc(NC(=O)Nc3cc(C(C)(C)C(F)(F)F)on3)cc2)cn1	3.61	1.03	0.79	0.718	–
COc1cncc(-c2cn[nH]c2/C=C/c2ccc(NC(=O)Nc3cc(C(C)(C)C(F)(F)F)on3)c(C)c2)c1	0.803	0.0294	0.0131	0.0264	–
CN1CCN(Cc2ccc(NC(=O)c3cncc(C#Cc4cnc(N)c5ncccc45)c3)cc2C(F)(F)F)CC1	–	–	–	–	IC50 [10]: 0.0288 µM; IC50 [11]: 0.0288 µM; IC50 [12]: 0.00389 µM
COc1ccc(-c2cn[nH]c2/C=C/c2ccc(NC(=O)Nc3cc(C(C)(C)C(F)(F)F)on3)cc2)cn1	2.02	0.301	0.0985	0.117	–
COc1cncc(-c2cn[nH]c2/C=C/c2ccc(NC(=O)Nc3cc(C(C)(C)C(F)(F)F)on3)c(OC)c2)c1	0.754	0.352	0.21	0.404	–
C[C@H]1CNC(=O)c2cnn3cc4c(nc23)N(Cc2cc(F)cnc2O1)[C@@H]1CCC[C@@H]1O4 [ENBEZOTINIB]	–	–	–	–	IC50 (BaF3 [13]): 0.001 µM; IC50 (BaF3 [14]): 0.001 µM; IC50 (BaF3 [15]): 0.001 µM
COc1cncc(-c2cn[nH]c2/C=C/c2ccc(NC(=O)Nc3cc(C(C)(C)C(F)(F)F)on3)c(F)c2)c1	0.564	0.022	0.0123	0.0455	–
COc1cncc(-c2cn[nH]c2/C=C/c2ccc(NC(=O)Nc3cc(C(C)(C)C(F)(F)F)on3)cc2OC)c1	1.05	0.443	0.133	0.7	–
COc1cncc(-c2c[nH]nc2/C=C\c2ccc(NC(=O)Nc3cc(C(C)(C)C(F)(F)F)on3)cc2)c1	1.79	0.812	0.406	0.694	–
COc1cc(-c2cn[nH]c2/C=C/c2ccc(NC(=O)Nc3cc(C(C)(C)C(F)(F)F)on3)cc2)ccn1	1.22	0.208	0.0854	0.121	–
